Data: patent US20230143612A1 (Arbutus Biopharma Corporation, priority 2020, published 2023)

The compounds below were run against PD-L1 His protein / PD-1 Fc protein (Homo sapiens, UniProt Q9NZQ7) (assay: HTRF Assay (PD-1/PD-L1 interaction)). Details: PD-L1 His 6 nM, PD-1 Fc 6 nM.
Assay type: binding
In short: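 Compounds tested from 20 μM down to 0.001 μM (3-fold) against 6 nM PD-L1 His and 6 nM PD-1 Fc, 15 min room temperature incubation. Detection after 1 h at room temperature with Tb cryptate anti-6HIS and XL665 anti-human IgG reagents (mixture at 0.35 nM and 6.7 nM), HTRF signal.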

Chain of PD-L1 His protein / PD-1 Fc protein (Q9NZQ7 19-238 limits assumed): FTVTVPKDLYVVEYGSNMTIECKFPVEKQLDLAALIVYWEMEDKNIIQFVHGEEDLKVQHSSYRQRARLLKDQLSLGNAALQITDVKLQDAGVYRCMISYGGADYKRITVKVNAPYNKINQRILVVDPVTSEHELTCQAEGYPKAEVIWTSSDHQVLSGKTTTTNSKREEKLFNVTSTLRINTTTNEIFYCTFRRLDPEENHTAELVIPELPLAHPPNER

`COc1nc(-c2cccc(-c3cccc(-c4ccn5c(=O)c(CNC6(CC(=O)O)CC6)cnc5c4)c3Cl)c2Cl)ccc1CNC[C@@H]1CCC(=O)N1` [Example 139, (S)-2-(1-(((8-(2,2′-Dichloro-3′-(6-methoxy-5-((((5-oxopyrrolidin-2-yl)methyl)amino)methyl)-pyridin-2-yl)-[1,1′-biphenyl]-3-yl)-4-oxo-4H-pyrido[1,2-a]pyrimidin-3-yl)methyl)amino)-cyclopropyl)acetic acid] and `COc1nc(-c2cccc(-c3cccc(-c4ccn5c(=O)c(CN[C@@H](CO)C(=O)O)cnc5c4)c3Cl)c2Cl)ccc1CNC[C@@H]1CCC(=O)N1` [Example 151, ((8-(2,2′-Dichloro-3′-(6-methoxy-5-(((((S)-5-oxopyrrolidin-2-yl)methyl)amino)methyl)pyridin-2-yl)-[1,1′-biphenyl]-3-yl)-4-oxo-4H-pyrido[1,2-a]pyrimidin-3-yl)methyl)-L-serine] are within 1.5-fold of each other in IC50: 0.4 nM for the first, 0.3 nM for the second.

Compared with `COc1nc(-c2cccc(-c3cc(F)cc(-c4ccn5c(=O)c(CNC[C@@H]6CCC(=O)N6)cnc5c4)c3Cl)c2Cl)ccc1CNC[C@@H]1CCC(=O)N1` [Example 140, 8-(2,2′-Dichloro-5-fluoro-3′-(6-methoxy-5-(((((S)-5-oxopyrrolidin-2-yl)methyl)amino)methyl)pyridin-2-yl)-[1,1′-biphenyl]-3-yl)-3-(((((S)-5-oxopyrrolidin-2-yl)methyl)amino)methyl)-4H-pyrido[1,2-a]pyrimidin-4-one], `COc1nc(-c2cccc(-c3cc(Cl)cc(-c4ccn5c(=O)c(CNC[C@@H]6CCC(=O)N6)cnc5c4)c3Cl)c2Cl)ccc1CNC[C@@H]1CCC(=O)N1` [Example 141, 3-(((((S)-5-Oxopyrrolidin-2-yl)methyl)amino)methyl)-8-(2,2′,5-trichloro-3′-(6-methoxy-5-(((((S)-5-oxopyrrolidin-2-yl)methyl)amino)methyl)pyridin-2-yl)-[1,1′-biphenyl]-3-yl)-4H-pyrido[1,2-a]pyrimidin-4-one] is 2.9-fold higher in IC50: 2 nM for the first, 5.8 nM for the second. The first is the more potent here.

`COc1nc(-c2cccc(-c3cccc(-c4ccn5c(=O)c(CNC[C@@H]6CCC(=O)N6)cnc5c4)c3Cl)c2Cl)ccc1CN[C@H]1C[C@](C)(O)C1` [Example 142, 8-(2,2′-Dichloro-3′-(5-((((1r,3r)-3-hydroxy-3-methylcyclobutyl)amino)methyl)-6-methoxypyridin-2-yl)-[1,1′-biphenyl]-3-yl)-3-(((((S)-5-oxopyrrolidin-2-yl)methyl)amino)methyl)-4H-pyrido[1,2-a]pyrimidin-4-one] and `COc1nc(-c2cccc(-c3cccc(-c4ccn5c(=O)c(CN[C@H]6C[C@](C)(O)C6)cnc5c4)c3Cl)c2Cl)ccc1CNC[C@@H]1CCC(=O)N1` [Example 143, 8-(2,2′-Dichloro-3′-(6-methoxy-5-(((((S)-5-oxopyrrolidin-2-yl)methyl)amino)methyl)pyridin-2-yl)-[1,1′-biphenyl]-3-yl)-3-((((1r,3r)-3-hydroxy-3-methylcyclobutyl)amino)methyl)-4H-pyrido[1,2-a]pyrimidin-4-one] are within 1.5-fold of each other in IC50: 1.7 nM for the first, 1.8 nM for the second.

`COc1nc(-c2cccc(-c3cccc(-c4ccn5c(=O)c(CN6CC[C@H](O)C6)cnc5c4)c3Cl)c2Cl)ccc1CNC[C@@H]1CCC(=O)N1` [Example 144, 8-(2,2′-Dichloro-3′-(6-methoxy-5-(((((S)-5-oxopyrrolidin-2-yl)methyl)amino)methyl)pyridin-2-yl)-[1,1′-biphenyl]-3-yl)-3-(((S)-3-hydroxypyrrolidin-1-yl)methyl)-4H-pyrido[1,2-a]pyrimidin-4-one] and `COc1nc(-c2cccc(-c3cccc(-c4ccn5c(=O)c(CN6CCN7C(=O)CCC7C6)cnc5c4)c3Cl)c2Cl)ccc1CNC[C@@H]1CCC(=O)N1` (stereo partly drawn) [Example 152, 8-(2,2′-Dichloro-3′-(6-methoxy-5-(((((S)-5-oxopyrrolidin-2-yl)methyl)amino)methyl)pyridin-2-yl)-[1,1′-biphenyl]-3-yl)-3-((6-oxohexahydropyrrolo[1,2-a]pyrazin-2(1H)-yl)methyl)-4H-pyrido[1,2-a]pyrimidin-4-one] are the same in IC50: 3.1 nM for the first, 3.1 nM for the second.

Compared with `COc1nc(-c2cccc(-c3cccc(-c4ccn5c(=O)c(CNC[C@@H]6CCC(=O)N6)cnc5c4)c3Cl)c2C#N)ccc1CNC[C@@H]1CCC(=O)N1` [Example 145, 2′-Chloro-3-(6-methoxy-5-(((((S)-5-oxopyrrolidin-2-yl)methyl)amino)methyl)pyridin-2-yl)-3′-(4-oxo-3-(((((S)-5-oxopyrrolidin-2-yl)methyl)amino)methyl)-4H-pyrido[1,2-a]pyrimidin-8-yl)-[1,1′-biphenyl]-2-carbonitrile], `COc1cc(-c2ccc(CNC[C@@H]3CCC(=O)N3)c(OC)n2)c(Cl)c(-c2cccc(-c3ccn4c(=O)c(CNC[C@@H]5CCC(=O)N5)cnc4c3)c2Cl)c1` [Example 146, 8-(2,2′-Dichloro-5′-methoxy-3′-(6-methoxy-5-(((((S)-5-oxopyrrolidin-2-yl)methyl)amino)methyl)pyridin-2-yl)-[1,1′-biphenyl]-3-yl)-3-(((((S)-5-oxopyrrolidin-2-yl)methyl)amino)methyl)-4H-pyrido[1,2-a]pyrimidin-4-one] is 110-fold higher in IC50: 2.2 nM for the first, 240 nM for the second.

First: COc1nc(-c2cccc(-c3cccc(-c4ccn5c(=O)c(CNC[C@@H]6CCC(=O)N6)cnc5c4)c3Cl)c2Cl)cc(F)c1CNC[C@@H]1CCC(=O)N1 [Example 147, 8-(2,2′-Dichloro-3′-(4-fluoro-6-methoxy-5-(((((S)-5-oxopyrrolidin-2-yl)methyl)amino)methyl)pyridin-2-yl)-[1,1′-biphenyl]-3-yl)-3-(((((S)-5-oxopyrrolidin-2-yl)methyl)amino)methyl)-4H-pyrido[1,2-a]pyrimidin-4-one]
Second: COC[C@@H](NCc1cnc2cc(-c3cccc(-c4cccc(-c5ccc(CNC[C@@H]6CCC(=O)N6)c(OC)n5)c4Cl)c3Cl)ccn2c1=O)C(=O)O [Example 150, N-((8-(2,2′-Dichloro-3′-(6-methoxy-5-(((((S)-5-oxopyrrolidin-2-yl)methyl)amino)methyl)-pyridin-2-yl)-[1,1′-biphenyl]-3-yl)-4-oxo-4H-pyrido[1,2-a]pyrimidin-3-yl)methyl)-O-methyl-D-serine]
The IC50 of the first is 13-fold higher: 3.9 nM for the first, 0.3 nM for the second. The second is the more potent here.

`COc1nc(-c2cccc(-c3cccc(-c4ccn5c(=O)c(CN6C[C@@H](O)C[C@H]6C(=O)O)cnc5c4)c3Cl)c2Cl)ccc1CNC[C@@H]1CCC(=O)N1` [Example 148, (2S,4S)-1-((8-(2,2′-Dichloro-3′-(6-methoxy-5-(((((S)-5-oxopyrrolidin-2-yl)methyl)amino)methyl)pyridin-2-yl)-[1,1′-biphenyl]-3-yl)-4-oxo-4H-pyrido[1,2-a]pyrimidin-3-yl)methyl)-4-hydroxypyrrolidine-2-carboxylic acid] and `COc1nc(-c2cccc(-c3cccc(-c4ccn5c(=O)c(CN6C[C@@H](O)C[C@@H]6C(=O)O)cnc5c4)c3Cl)c2Cl)ccc1CNC[C@@H]1CCC(=O)N1` [Example 149, (2R,4S)-1-((8-(2,2′-Dichloro-3′-(6-methoxy-5-(((((S)-5-oxopyrrolidin-2-yl)methyl)amino)methyl)pyridin-2-yl)-[1,1′-biphenyl]-3-yl)-4-oxo-4H-pyrido[1,2-a]pyrimidin-3-yl)methyl)-4-hydroxypyrrolidine-2-carboxylic acid] are within 1.5-fold of each other in IC50: 0.4 nM for the first, 0.3 nM for the second.
